Results on 18 compounds are retold here after PubChem BioAssay AID200 (DTP/NCI, 2004).

Where “and” joins values, the source holds several entries; their conditions need not be identical. Equal values may be shown once. Inconclusive results and toxic doses are left out.

The assay concerns B6C3F1 mice, B16 melanoma ip, median survival T/C. The experiment in a line: NCI In Vivo Anticancer Drug Screen. Data for tumor model B16 Melanoma (intraperitoneal) in B6C3F1 mice. The conditions noted are these: endpoint: median survival time, higher = longer survival. An outline of the steps:
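Mice bearing transplanted tumor were dosed with compound or vehicle, and survival was recorded. Activity is expressed as the treated-group measurement (T) divided by the vehicle control measurement (C).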

Setting [1] is: dose: 50.0 mg/kg/injection, schedule: Q01DX009 (ip), vehicle: Klucel (hydroxypropylcellulose) (HPC).
Where [2] appears, read: dose: 100.0 mg/kg/injection, schedule: Q01DX009 (ip), vehicle: Klucel (hydroxypropylcellulose) (HPC).
Where [3] appears, read: dose: 200.0 mg/kg/injection, schedule: Q01DX009 (ip), vehicle: Klucel (hydroxypropylcellulose) (HPC).
Where [4] appears, read: dose: 50.0 mg/kg/injection, schedule: Q01DX009 (ip), vehicle: saline with Tween-80.
Setting [5] is: dose: 100.0 mg/kg/injection, schedule: Q01DX009 (ip), vehicle: saline with Tween-80.
[6] abbreviates: dose: 12.5 mg/kg/injection, schedule: Q01DX009 (ip), vehicle: suspension in saline.
[7] abbreviates: dose: 25.0 mg/kg/injection, schedule: Q01DX009 (ip), vehicle: suspension in saline.
[8] abbreviates: dose: 400.0 mg/kg/injection, schedule: Q01DX009 (ip), vehicle: Klucel (hydroxypropylcellulose) (HPC).

Regarding `O=C(Cl)c1ccccc1S(=O)(=O)N(CCOc1ccccc1)c1ccccc1`, the T/C reads like this: under setting [1], 90 % of control; under setting [2], 94 % of control; under setting [3], 90 % of control.
For `CC1CCC2C(C)C(=O)OC2C2(C)C(=O)C=CC12` (stereo not drawn), the T/C is 95 % of control (dose: 14.0 mg/kg/injection, schedule: Q01DX009 (ip), vehicle: Klucel (hydroxypropylcellulose) (HPC)); 95 % of control (dose: 22.0 mg/kg/injection, schedule: Q01DX009 (ip), vehicle: Klucel (hydroxypropylcellulose) (HPC)); 97 % of control (dose: 35.0 mg/kg/injection, schedule: Q01DX009 (ip), vehicle: Klucel (hydroxypropylcellulose) (HPC)); 97 % of control under setting [1].
`O=C1C=C(Nc2ccc(O)cc2)c2ccccc2C1=O`: the T/C is 102 % of control (dose: 5.0 mg/kg/injection, schedule: Q01DX009 (ip), vehicle: saline); 98 % of control (dose: 10.0 mg/kg/injection, schedule: Q01DX009 (ip), vehicle: saline); 93 % of control (dose: 20.0 mg/kg/injection, schedule: Q01DX009 (ip), vehicle: saline).
Turning to `COC12[C@@H]3N[C@@H]3CN1C1=C(C(=O)C(NCCSSCCNC3=C(C)C(=O)C4=C(C3=O)C(COC(N)=O)[C@]3(OC)C5N[C@@H]5CN43)=C(C)C1=O)[C@@H]2COC(N)=O` (stereo partly drawn), the T/C (dose: 0.75 mg/kg/injection, schedule: Q04DX003 (ip), vehicle: suspension in saline) was 193 % of control; the T/C (dose: 1.5 mg/kg/injection, schedule: Q04DX003 (ip), vehicle: suspension in saline) was 190 % of control; the T/C (dose: 3.0 mg/kg/injection, schedule: Q04DX003 (ip), vehicle: suspension in saline) is 218 % of control; the T/C (dose: 6.0 mg/kg/injection, schedule: Q04DX003 (ip), vehicle: suspension in saline) is 218 % of control; the T/C (dose: 12.0 mg/kg/injection, schedule: Q04DX003 (ip), vehicle: suspension in saline) is 218 % of control.
Turning to `O=C(O)CCC(NC(=O)c1ccccc1)C(=O)O` (stereo not drawn), the T/C was 93 % of control under setting [4] and 106 % of control under setting [5].
Consider `NC(=O)c1ncn2c(=O)n(CCCl)nnc12`, for which the T/C reads like this: (dose: 3.13 mg/kg/injection, schedule: Q01DX009 (ip), vehicle: suspension in saline) 123 % of control; under setting [6], 225 % of control; under setting [7], 209 % of control.
Regarding `O=C(N[C@H](CO)[C@H](O)c1ccc([N+](=O)[O-])cc1)C(Cl)Cl`, the T/C is 117 % of control under setting [4]; 103 % of control under setting [5]; 109 % of control (dose: 200.0 mg/kg/injection, schedule: Q01DX009 (ip), vehicle: saline with Tween-80); 97 % of control (dose: 400.0 mg/kg/injection, schedule: Q01DX009 (ip), vehicle: saline with Tween-80); 100 % of control (dose: 800.0 mg/kg/injection, schedule: Q01DX009 (ip), vehicle: saline with Tween-80).
Take `Clc1ccc(C2SC=Cc3ccccc32)cc1` (stereo not drawn): the T/C (dose: 25.0 mg/kg/injection, schedule: Q01DX009 (ip), vehicle: Klucel (hydroxypropylcellulose) (HPC)) was 114 % of control; the T/C under setting [1] is 114 % of control; the T/C under setting [2] is 118 % of control; the T/C under setting [3] was 112 % of control; the T/C under setting [8] is 103 % of control.
Turning to `Cc1cccc(Nc2c(N)nc(N)nc2N)c1`, the T/C reads like this: under setting [1], 102 % of control; (dose: 75.0 mg/kg/injection, schedule: Q01DX009 (ip), vehicle: Klucel (hydroxypropylcellulose) (HPC)) 99 % of control.
`ClCCCN1CCN(CCCl)CC1`: the T/C is, setting by setting: (dose: 1.25 mg/kg/injection, schedule: Q01DX009 (ip), vehicle: saline) 98 % of control; (dose: 2.5 mg/kg/injection, schedule: Q01DX009 (ip), vehicle: saline) 124 % of control and 99 % of control.
On to `O=C1C(O)=C(c2ccccc2)C(=O)C(O)=C1c1ccccc1`, for which the T/C (dose: 3.12 mg/kg/injection, schedule: Q01DX009 (ip), vehicle: saline) is 109 % of control; the T/C (dose: 6.25 mg/kg/injection, schedule: Q01DX009 (ip), vehicle: saline) was 100 % of control; the T/C (dose: 12.5 mg/kg/injection, schedule: Q01DX009 (ip), vehicle: saline) was 91 % of control and 101 % of control; the T/C (dose: 25.0 mg/kg/injection, schedule: Q01DX009 (ip), vehicle: saline) is 109 % of control and 117 % of control; the T/C (dose: 50.0 mg/kg/injection, schedule: Q01DX009 (ip), vehicle: saline) is 108 % of control and 112 % of control.
In the case of `COC1=Nc2ccccc2N2CCN=C12`, the T/C by setting is: (dose: 6.25 mg/kg/injection, schedule: Q04DX003 (ip), vehicle: saline with Tween-80) 103 % of control; (dose: 12.5 mg/kg/injection, schedule: Q04DX003 (ip), vehicle: saline with Tween-80) 106 % of control; (dose: 25.0 mg/kg/injection, schedule: Q04DX003 (ip), vehicle: saline with Tween-80) 96 % of control; (dose: 50.0 mg/kg/injection, schedule: Q04DX003 (ip), vehicle: saline with Tween-80) 96 % of control.
Turning to `CCCCNc1nc(N)nc(Nc2ccc(Br)cc2)c1N=O`, the T/C was 97 % of control under setting [1] and 92 % of control under setting [2].
Turning to `CC(NC(=O)OCc1ccccc1)C(=O)NC(Cc1c[nH]c2ccccc12)C(=O)O` (stereo not drawn), the T/C under setting [2] is 95 % of control, the T/C under setting [3] is 100 % of control and the T/C under setting [8] is 89 % of control.
Turning to `C=C1CCC[C@@]2(C)CC[C@@H](/C(C)=C\C=C\C(C)(C)O)C[C@H]12`, the T/C reads like this: (dose: 12.5 mg/kg/injection, schedule: Q01DX009 (ip), vehicle: Klucel + Tween-80) 113 % of control; (dose: 25.0 mg/kg/injection, schedule: Q01DX009 (ip), vehicle: Klucel + Tween-80) 106 % of control; (dose: 50.0 mg/kg/injection, schedule: Q01DX009 (ip), vehicle: Klucel + Tween-80) 107 % of control; (dose: 100.0 mg/kg/injection, schedule: Q01DX009 (ip), vehicle: Klucel + Tween-80) 112 % of control; (dose: 200.0 mg/kg/injection, schedule: Q01DX009 (ip), vehicle: Klucel + Tween-80) 90 % of control.
Take `COc1ccc(-c2c3c(cc4cc5c(cc24)OCO5)C(=O)OC3)cc1OC`: the T/C (dose: 6.0 mg/kg/injection, schedule: Q01DX009 (ip), vehicle: Klucel (hydroxypropylcellulose) (HPC)) was 100 % of control; the T/C (dose: 12.0 mg/kg/injection, schedule: Q01DX009 (ip), vehicle: Klucel (hydroxypropylcellulose) (HPC)) is 117 % of control and 105 % of control; the T/C (dose: 24.0 mg/kg/injection, schedule: Q01DX009 (ip), vehicle: Klucel (hydroxypropylcellulose) (HPC)) is 88 % of control and 99 % of control.
Consider `NC(=S)N/N=C/c1ccc(O)cn1`, for which the T/C runs as follows: under setting [6], 106 % of control; under setting [7], 113 % of control; (dose: 50.0 mg/kg/injection, schedule: Q01DX009 (ip), vehicle: suspension in saline) 119 % of control; (dose: 100.0 mg/kg/injection, schedule: Q01DX009 (ip), vehicle: suspension in saline) 118 % of control.
`CC(=O)OC1C2CCC3C(C)(O)C4CC(O)C(C)(C)C4(O)C(O)CC13CC2(C)O` (stereo not drawn): the T/C (dose: 0.25 mg/kg/injection, schedule: Q01DX009 (ip), vehicle: Klucel (hydroxypropylcellulose) (HPC)) was 111 % of control; the T/C (dose: 0.5 mg/kg/injection, schedule: Q01DX009 (ip), vehicle: Klucel (hydroxypropylcellulose) (HPC)) is 100 % of control; the T/C (dose: 1.0 mg/kg/injection, schedule: Q01DX009 (ip), vehicle: Klucel (hydroxypropylcellulose) (HPC)) is 121 % of control.
